Assay results published in US9029531B2 (Agios Pharmaceuticals, Inc., priority 2012, dated 2015).

These molecules were tested against T1, glutaminase (GAC) (Homo sapiens, UniProt O94925) (assay: Glutaminase coupled endpoint enzymatic assay (Example A)). Settings: inhibition of glutaminase; assay of Example A or Example B.
T1 sequence (O94925 55-598 isoform O94925-3 limits assumed): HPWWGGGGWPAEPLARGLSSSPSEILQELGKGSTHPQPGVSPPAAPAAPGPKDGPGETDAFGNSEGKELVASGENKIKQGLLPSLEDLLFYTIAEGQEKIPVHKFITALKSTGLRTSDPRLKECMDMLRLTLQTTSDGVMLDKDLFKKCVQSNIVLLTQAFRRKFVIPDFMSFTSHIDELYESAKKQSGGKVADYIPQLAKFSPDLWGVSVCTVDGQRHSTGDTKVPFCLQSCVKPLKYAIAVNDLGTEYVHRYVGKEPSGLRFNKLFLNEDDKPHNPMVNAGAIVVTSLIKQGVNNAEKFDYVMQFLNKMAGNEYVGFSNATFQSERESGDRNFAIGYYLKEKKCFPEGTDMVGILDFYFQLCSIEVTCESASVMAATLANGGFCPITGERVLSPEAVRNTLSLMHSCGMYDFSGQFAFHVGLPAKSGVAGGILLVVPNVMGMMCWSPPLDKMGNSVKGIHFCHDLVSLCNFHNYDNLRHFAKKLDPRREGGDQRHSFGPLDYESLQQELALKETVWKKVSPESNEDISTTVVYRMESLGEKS
Assay type: biochemical
Excerpt: In certain embodiments, exemplary compounds of Formula I include the compounds described in Table 1 and in the Examples. A compound described herein may be tested for its ability to inhibit glutaminase, e.g., by an assay as described in the Examples. For simplicity, the inhibition activity of these compounds is represented as an IC50 tested in an assay of Example A or Example B in Table 1. […] “N/A” refers to compounds wherein the IC50 is unavailable.
In this example, the enzymatic activity of glutaminase is measured through a coupled endpoint assay. Glutamine and phosphate are supplied to GAC at a concentration equal to Km and AC50, respectively, and GAC concentration is adjusted to give a linear reaction for 60 minutes. The glutamate produced is converted to 2-OG by a kinetic excess of glutamate dehydrogenase. This second step is configured for 2×Km for NAD, since excess NAD is inhibitory. However, a kinetic excess of the third coupling enzyme, diaphorase, recycles NAD from NADH to keep the NAD concentration constant during the timecourse of the assay. Diaphorase, also supplied in kinetic excess, oxidizes NADH produced by GDH back to NAD with the concomitant reduction of rezasurin to the highly fluorescent resorufin. Resorufin in measured after the assay is stopped with SDS by Ex544/Em590. A reduction in the signal indicates inhibition of some component of the coupled enzyme system. Prospective hits are counterscreened against GDH/diaphorase alone to remove hits to the coupling enzyme system in a second assay.
2. Buffers • 2× Buffer (300 mM NaCl, 100 mM HEPES pH 8.5, 0.1% BSA, 0.5 mM EDTA, 100 mM sodium phosphate pH 8.5) • 5× Substrate Mix (1× Buffer final concentration, with 13 mM glutamine, 100 μM resazurin, 50 μg/ml diaphorase) • 1.2× Enzyme Mix (1× Buffer final concentration, with 0.875 μg/ml GAC, 1.56 mM NAD, 6.25 units/ml GDH) • Stop Mix (6% SDS in ddH2O) Reaction Procedure • 1. Add 1 μl compound in 100% DMSO • 2. Add 40 μl of Enzyme Mix and incubate for 60 minute at room temperature • 3. Add 10 μl of Substrate Mix to start reaction • 4. Stop reaction with 25 μl of 6% SDS and read Ex544 Em 590

Compound	IC50
COc1ccc(CC(=O)Nc2nnc([C@H]3CCC[C@H](c4nnc(NC(=O)Cc5ccc(OC)nc5)s4)C3)s2)cn1 [Compound 221, N,N′-(5,5′-((1S,3S)-cyclohexane-1,3-diyl)bis(1,3,4-thiadiazole-5,2-diyl))bis(2-(6-methoxypyridin-3-yl)acetamide)]	< 100 nM
O=C(Cc1cscn1)Nc1nnc([C@H]2CCC[C@H](c3nnc(NC(=O)Cc4cscn4)s3)C2)s1 [Compound 222, N,N′-(5,5′-((1S,3S)-cyclohexane-1,3-diyl)bis(1,3,4-thiadiazole-5,2-diyl))bis(2-(thiazol-4-yl)acetamide)]	< 100 nM
COc1ccnc(CC(=O)Nc2nnc([C@H]3CCC[C@H](c4nnc(NC(=O)Cc5cc(OC)ccn5)s4)C3)s2)c1 [Compound 223, N,N′-(5,5′-((1S,3S)-cyclohexane-1,3-diyl)bis(1,3,4-thiadiazole-5,2-diyl))bis(2-(4-methoxypyridin-2-yl)acetamide)]	< 100 nM
COc1cc(CC(=O)Nc2nnc([C@H]3CCC[C@H](c4nnc(NC(=O)Cc5ccnc(OC)c5)s4)C3)s2)ccn1 [Compound 224, 2-(2-methoxypyridin-4-yl)-N-[5-[(1S,3S)-3-[5-[[2-(2-methoxypyridin-4-yl)acetyl]amino]-1,3,4-thiadiazol-2-yl]cyclohexyl]-1,3,4-thiadiazol-2-yl]acetamide]	< 100 nM
COc1ccc(CC(=O)Nc2nnc([C@H]3CCC[C@H](c4nnc(NC(=O)Cc5ccc(OC)cn5)s4)C3)s2)nc1 [Compound 225, N,N′-(5,5′-((1S,3S)-cyclohexane-1,3-diyl)bis(1,3,4-thiadiazole-5,2-diyl))bis(2-(5-methoxypyridin-2-yl)acetamide)]	< 100 nM
CCOc1ccc(CC(=O)Nc2nnc([C@H]3CCC[C@H](c4nnc(NC(=O)Cc5ccc(OCC)cn5)s4)C3)s2)nc1 [Compound 226, N,N′-(5,5′-((1S,3S)-cyclohexane-1,3-diyl)bis(1,3,4-thiadiazole-5,2-diyl))bis(2-(5-ethoxypyridin-2-yl)acetamide)]	< 100 nM
O=C(Cc1ccc(OC(F)F)cn1)Nc1nnc([C@H]2CCC[C@H](c3nnc(NC(=O)Cc4ccc(OC(F)F)cn4)s3)C2)s1 [Compound 228, N,N′-(5,5′-((1S,3S)-cyclohexane-1,3-diyl)bis(1,3,4-thiadiazole-5,2-diyl))bis(2-(5-(difluoromethoxy)pyridin-2-yl)acetamide)]	< 100 nM
N#Cc1cccc(CC(=O)Nc2nnc([C@H]3CCC[C@H](c4nnc(NC(=O)Cc5cccc(C#N)n5)s4)C3)s2)n1 [Compound 229, N,N′-(5,5′-((1S,3S)-cyclohexane-1,3-diyl)bis(1,3,4-thiadiazole-5,2-diyl))bis(2-(6-cyanopyridin-2-yl)acetamide)]	< 100 nM
O=C(Cc1ccncn1)Nc1nnc([C@H]2CCC[C@H](c3nnc(NC(=O)Cc4ccncn4)s3)C2)s1 [Compound 230, N,N′-(5,5′-((1S,3S)-cyclohexane-1,3-diyl)bis(1,3,4-thiadiazole-5,2-diyl))bis(2-(pyrimidin-4-yl)acetamide)]	1000 to 2000 nM
O=C(Cc1cccnn1)Nc1nnc([C@H]2CCC[C@H](c3nnc(NC(=O)Cc4cccnn4)s3)C2)s1 [Compound 231, N,N′-(5,5′-((1S,3S)-cyclohexane-1,3-diyl)bis(1,3,4-thiadiazole-5,2-diyl))bis(2-(pyridazin-3-yl)acetamide)]	100 to 500 nM
Nc1cccc(CC(=O)Nc2nnc([C@H]3CCC[C@H](c4nnc(NC(=O)Cc5cccc(N)n5)s4)C3)s2)n1 [Compound 232, N,N′-(5,5′-((1S,3S)-cyclohexane-1,3-diyl)bis(1,3,4-thiadiazole-5,2-diyl))bis(2-(6-aminopyridin-2-yl)acetamide)]	< 100 nM
Nc1ccc(CC(=O)Nc2nnc([C@H]3CCC[C@H](c4nnc(NC(=O)Cc5ccc(N)cn5)s4)C3)s2)nc1 [Compound 233, N,N′-(5,5′-((1S,3S)-cyclohexane-1,3-diyl)bis(1,3,4-thiadiazole-5,2-diyl))bis(2-(5-aminopyridin-2-yl)acetamide)]	< 100 nM
CN(C)C(=O)c1ccc(CC(=O)Nc2nnc([C@H]3CCC[C@H](c4nnc(NC(=O)Cc5ccc(C(=O)N(C)C)cn5)s4)C3)s2)nc1 [Compound 234, 6-[[5-[3-[5-[[2-[5-(dimethylcarbamoyl)pyridin-2-yl]acetyl]amino]-1,3,4-thiadiazol-2-yl]cyclohexyl]-1,3,4-thiadiazol-2-yl]carbamoylmethyl]-N,N-dimethyl-pyridine-3-carboxamide]	100 to 500 nM
CCN(CC)c1cccc(CC(=O)Nc2nnc([C@H]3CCC[C@H](c4nnc(NC(=O)Cc5cccc(N(CC)CC)c5)s4)C3)s2)c1 [Compound 235, N,N′-(5,5′-((1S,3S)-cyclohexane-1,3-diyl)bis(1,3,4-thiadiazole-5,2-diyl))bis(2-(3-(diethylamino)phenyl)acetamide)]	500 to 1000 nM
CCNc1cccc(CC(=O)Nc2nnc([C@H]3CCC[C@H](c4nnc(NC(=O)Cc5cccc(NCC)c5)s4)C3)s2)c1 [Compound 236, N,N′-(5,5′-((1S,3S)-cyclohexane-1,3-diyl)bis(1,3,4-thiadiazole-5,2-diyl))bis(2-(3-(ethylamino)phenyl)acetamide)]	< 100 nM
CCN(CC)c1ccc(CC(=O)Nc2nnc([C@H]3CCC[C@H](c4nnc(NC(=O)Cc5ccc(N(CC)CC)cc5)s4)C3)s2)cc1 [Compound 237, N,N′-(5,5′-((1S,3S)-cyclohexane-1,3-diyl)bis(1,3,4-thiadiazole-5,2-diyl))bis(2-(4-(diethylamino)phenyl)acetamide)]	500 to 1000 nM
CS(=O)(=O)Nc1ccc(CC(=O)Nc2nnc([C@H]3CCC[C@H](c4nnc(NC(=O)Cc5ccc(NS(C)(=O)=O)cc5)s4)C3)s2)cc1 [Compound 238, N,N′-(5,5′-((1S,3S)-cyclohexane-1,3-diyl)bis(1,3,4-thiadiazole-5,2-diyl))bis(2-(4-(methylsulfonamido)phenyl)acetamide)]	< 100 nM
Nc1ccc(CC(=O)Nc2nnc([C@H]3CCC[C@H](c4nnc(NC(=O)Cc5ccc(N)cc5)s4)C3)s2)cc1 [Compound 239, N,N′-(5,5′-((1S,3S)-cyclohexane-1,3-diyl)bis(1,3,4-thiadiazole-5,2-diyl))bis(2-(4-aminophenyl)acetamide)]	< 100 nM
O=C(Cc1ccc(F)cn1)Nc1nnc([C@H]2CCC[C@H](c3nnc(NC(=O)Cc4ccc(F)cn4)s3)C2)s1 [Compound 240, N,N′-(5,5′-((1S,3S)-cyclohexane-1,3-diyl)bis(1,3,4-thiadiazole-5,2-diyl))bis(2-(5-fluoropyridin-2-yl)acetamide)]	< 100 nM
CN(C)c1ccc(CC(=O)Nc2nnc([C@H]3CCC[C@H](c4nnc(NC(=O)Cc5ccc(N(C)C)cn5)s4)C3)s2)nc1 [Compound 241, N,N′-(5,5′-((1S,3S)-cyclohexane-1,3-diyl)bis(1,3,4-thiadiazole-5,2-diyl))bis(2-(5-(dimethylamino)pyridin-2-yl)acetamide)]	< 100 nM
NC(=O)c1ccc(CC(=O)Nc2nnc([C@H]3CCC[C@H](c4nnc(NC(=O)Cc5ccc(C(N)=O)cn5)s4)C3)s2)nc1 [Compound 242]	< 100 nM
NCc1ccc(CC(=O)Nc2nnc([C@H]3CCC[C@H](c4nnc(NC(=O)Cc5ccc(CN)cn5)s4)C3)s2)nc1 [Compound 243, N,N′-(5,5′-((1S,3S)-cyclohexane-1,3-diyl)bis(1,3,4-thiadiazole-5,2-diyl))bis(2-(5-(aminomethyl)pyridin-2-yl)acetamide)]	100 to 500 nM
NCc1cccc(CC(=O)Nc2nnc([C@H]3CCC[C@H](c4nnc(NC(=O)Cc5cccc(CN)n5)s4)C3)s2)n1 [Compound 244, N,N′-(5,5′-((1S,3S)-cyclohexane-1,3-diyl)bis(1,3,4-thiadiazole-5,2-diyl))bis(2-(6-(aminomethyl)pyridin-2-yl)acetamide)]	100 to 500 nM
